These results are taken from article PMC10687260, “1,3-Diphenylureido hydroxamate as a promising scaffold for generation of potent antimalarial histone deacetylase inhibitors” (Scientific Reports, 2023).

For one data set, the target named is T1, human HDAC1 (Homo sapiens, UniProt Q13547).
T1 construct: purchased ENZO Life Sciences AG (Lausen, CH)
In words: In vitro HDAC enzymatic assay, HDAC1. Format: biochemical. To be noted: mean ± SD. As for the experimental part: (§1) In vitro HDAC enzymatic assays. Recombinant human HDAC1 and HDAC6 were purchased from ENZO Life Sciences AG (Lausen, CH) whereas HDAC8 was produced as described before. In vitro testing of the inhibitors in an enzymatic assay was carried out as described in previous publications[32],[33]. For HDAC1 a fluorogenic peptide derived from p53 (Ac-RHKK(Acetyl)-AMC) was used. For HDAC6, the substrate (Abz-SRGGK(thio-TFA)FFRR-NH2) was used as described before.

The subject of a further data set is Namalwa. Set-up: method as in PMID 33668008. To be noted: Fig. 1A; cited from earlier work.
Another data set relates to HepG2 cells. In words: Cytotoxicity in human HepG2 cells (WST-1). It is filed as cell-based. Conditions: Homo sapiens, HepG2; 48 h, WST-1; read-out: IC50 HepG2. As for the experimental part: Cytotoxicity in human HepG2 cells.[47] […] Cytotoxic effects of compounds were assessed using the cell proliferation reagent WST-1 (Roche; CELLPRO-RO) in a 96-well plate-based screening assay. HepG2 cells were seeded at 10^4 cells/well (100 μL) in 96-well flat-bottom plates (Sarstedt) the night before the experiment to allow attachment of cells. The next day, two-fold serial dilutions of compounds were prepared in fresh medium in an extra plate, and the medium of cells was replaced by the medium containing the compound dilutions. Non-treated cells (max. proliferation), cells treated with the maximal solvent concentration (DMSO; solvent control), and medium with the maximal compound concentration (native absorbance) used as controls. […] Subsequently, 10 μL WST-1 was added to each well and plates were incubated for additional 4 h under standard conditions. WST-1 is a tetrazolium salt and is metabolised by the mitochondrial succinate-tetrazolium-reductase system of living cells and forms formazan, whose absorbance was measured at 450 nm. Absorbance at 630 nm was assessed to check for protein and precipitation background. Both measurements were acquired via the CLARIOstar (V5.20) and MARS software, manually scaled to 0–100%, and plotted with GraphPad Prism (version 9.5.2 for Windows, GraphPad Software, La Jolla California USA).

Another data set deals with T2, HDAC8 (Homo sapiens, UniProt Q9BY41).
T2 construct: made in house
T2 sequence (Q9BY41 1-377): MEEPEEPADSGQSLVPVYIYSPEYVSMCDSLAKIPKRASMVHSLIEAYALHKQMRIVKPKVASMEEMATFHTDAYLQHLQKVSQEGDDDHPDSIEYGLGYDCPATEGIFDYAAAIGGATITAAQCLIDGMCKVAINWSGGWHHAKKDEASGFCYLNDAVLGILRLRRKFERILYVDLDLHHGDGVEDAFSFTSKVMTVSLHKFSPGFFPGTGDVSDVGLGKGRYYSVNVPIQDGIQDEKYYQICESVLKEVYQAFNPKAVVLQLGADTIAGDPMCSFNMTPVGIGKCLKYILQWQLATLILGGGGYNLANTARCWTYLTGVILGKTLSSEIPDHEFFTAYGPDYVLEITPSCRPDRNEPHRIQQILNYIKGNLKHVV
Nature of the data set: In vitro HDAC enzymatic assay, HDAC8. Format: biochemical. To be noted: mean ± SD. As to the method: as §1

In the next data set the target is T3, human HDAC6 (Homo sapiens, UniProt Q9UBN7).
T3 construct: purchased ENZO Life Sciences AG (Lausen, CH)
T3 sequence (Q9UBN7 1-1215): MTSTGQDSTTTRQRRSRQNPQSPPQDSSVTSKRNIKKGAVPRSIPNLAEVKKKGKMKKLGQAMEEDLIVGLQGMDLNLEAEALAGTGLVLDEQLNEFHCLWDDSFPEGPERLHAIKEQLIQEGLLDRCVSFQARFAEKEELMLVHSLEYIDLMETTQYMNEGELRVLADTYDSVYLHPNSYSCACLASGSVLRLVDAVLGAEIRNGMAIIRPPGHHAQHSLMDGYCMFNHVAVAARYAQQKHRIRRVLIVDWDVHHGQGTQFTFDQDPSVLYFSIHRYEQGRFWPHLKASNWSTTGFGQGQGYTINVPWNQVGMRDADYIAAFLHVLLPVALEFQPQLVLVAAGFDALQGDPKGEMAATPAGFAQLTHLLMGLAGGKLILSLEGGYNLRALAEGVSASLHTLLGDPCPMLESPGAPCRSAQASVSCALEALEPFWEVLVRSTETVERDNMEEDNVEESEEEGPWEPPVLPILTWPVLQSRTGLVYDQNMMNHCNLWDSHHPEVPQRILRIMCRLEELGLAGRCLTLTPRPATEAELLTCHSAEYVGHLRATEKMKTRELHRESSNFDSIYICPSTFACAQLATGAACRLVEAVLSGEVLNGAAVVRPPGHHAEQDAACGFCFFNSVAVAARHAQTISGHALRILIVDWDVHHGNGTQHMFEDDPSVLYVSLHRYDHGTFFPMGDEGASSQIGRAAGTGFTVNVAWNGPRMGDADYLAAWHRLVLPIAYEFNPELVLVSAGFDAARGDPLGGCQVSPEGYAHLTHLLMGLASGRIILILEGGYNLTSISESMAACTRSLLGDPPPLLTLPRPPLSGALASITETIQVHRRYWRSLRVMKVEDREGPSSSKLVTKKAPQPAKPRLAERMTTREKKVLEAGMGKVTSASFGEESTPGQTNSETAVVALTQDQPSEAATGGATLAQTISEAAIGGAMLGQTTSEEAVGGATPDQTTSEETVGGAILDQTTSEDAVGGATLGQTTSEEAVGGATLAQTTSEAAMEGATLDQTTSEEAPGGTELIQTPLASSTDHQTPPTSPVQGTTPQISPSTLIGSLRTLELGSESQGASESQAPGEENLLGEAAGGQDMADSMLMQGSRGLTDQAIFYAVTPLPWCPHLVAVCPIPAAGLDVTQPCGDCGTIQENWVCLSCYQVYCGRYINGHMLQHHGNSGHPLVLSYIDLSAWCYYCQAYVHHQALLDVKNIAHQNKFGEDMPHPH
In words: In vitro HDAC enzymatic assay, HDAC6. Format: biochemical. Conditions: for IC50: mean ± SD; for HDAC1/6 SI: ratio HsHDAC1 IC50/HsHDAC6 IC50. As to the method:
as §1

Another data set concerns P. falciparum 3D7. In words: Antiplasmodial SYBR Green I proliferation assay, P. falciparum 3D7. Format: cell-based, Plasmodium falciparum. To be noted: Plasmodium falciparum, 3D7, 96 h, 96 h; values in brackets 95% confidence intervals; read-out: IC50 Pf3D7. An excerpt:
Antiplasmodial activity against P. falciparum 3D7 (A, C and E) and P. falciparum Dd2 (B, D, F). […] Curves were plotted using non-linear regression based on means from three independent experiments measured in triplicate. Error bars indicate standard deviation, whose values are provided in the respective table.
Plasmodium falciparum culture and antiplasmodial activity. […] Development, parasitaemia, and morphology of parasites were monitored by light microscopy of thin blood smears stained according to the Romanowsky method (Panótico Rápido staining kit; Laborclin, Pinhais, Paraná, Brazil). […] Fresh 0^+ blood was generously provided by “Hospital Novo Atibaia” (Atibaia, SP, Brazil), and approved by the ethics committee at ICB-USP. The antiplasmodial effect of all compounds was validated against P. falciparum 3D7 strain conducting SYBR Green I (Invitrogen) drug assays as previously reported[30],[46] as a modification of the original procedure. […] Parasite proliferation was measured by the DNA load via fluorescence, using 100 μL of a lysis buffer with SYBR Green I (0.02% v/v) and incubated for 1 h at room temperature in the dark. […] Focal and gain adjustment was performed using the non-treated controls (highest expected fluorescence signal). Data was acquired via the CLARIOstar (V5.20) and MARS software, manually scaled to 0–100%, and plotted using GraphPad Prism (v9.5.2 for Windows, GraphPad Software, La Jolla California USA, www.graphpad.com). Non-treated parasites, the highest solvent concentration on parasites, CQ on parasites, and the highest drug concentration in the medium were used as controls for maximal growth, solvent control, positive biological control, and native drug fluorescence, respectively.

A further data set deals with Jurkat. Set-up: method as in PMID 33668008. To be noted: Fig. 1A; cited from earlier work.
The subject of another data set is P. falciparum culture. On the set-up: method as in PMID 33046062. To be noted: cited from earlier work.
On the set-up of data set [1]: method as in PMID 33046062. To be noted: cited from earlier work.
For another data set, the target named is CYP450 3A4 (Homo sapiens, UniProt P08684). In words: CYP450 inhibition in human liver microsomes, 3A4. As for the experimental part: DMPK evaluation. […] At 0, 5, 10, 20, 40, and 60 min time points, aliquots were removed and acetonitrile was added to quench the reactions and precipitate the proteins. […] After a 10 min incubation, the reaction was terminated and the per cent inhibition was determined.

The next data set has as its target T4, CYP450 2C9 (Homo sapiens, UniProt P11712).
T4 construct: 10 μM compound was incubated with human liver microsomes and selective marker substrates; from tissue; host or cells: human liver microsomes
Nature of the data set: CYP450 inhibition in human liver microsomes, 2C9. Format: in vitro ADME. To be noted: 10 µM.

Another data set has as its target T5, CYP450 2D6 (Homo sapiens, UniProt P10635).
T5 construct: 10 μM compound was incubated with human liver microsomes and selective marker substrates; from tissue; host or cells: human liver microsomes
Nature of the data set: CYP450 inhibition in human liver microsomes, 2D6. It is filed as in vitro ADME. To be noted: 10 µM.

In another data set the target is T6, CYP1A2 (Homo sapiens, UniProt P05177).
T6 construct: 10 μM compound was incubated with human liver microsomes and selective marker substrates; from tissue; host or cells: human liver microsomes
T6 sequence (P05177 1-516): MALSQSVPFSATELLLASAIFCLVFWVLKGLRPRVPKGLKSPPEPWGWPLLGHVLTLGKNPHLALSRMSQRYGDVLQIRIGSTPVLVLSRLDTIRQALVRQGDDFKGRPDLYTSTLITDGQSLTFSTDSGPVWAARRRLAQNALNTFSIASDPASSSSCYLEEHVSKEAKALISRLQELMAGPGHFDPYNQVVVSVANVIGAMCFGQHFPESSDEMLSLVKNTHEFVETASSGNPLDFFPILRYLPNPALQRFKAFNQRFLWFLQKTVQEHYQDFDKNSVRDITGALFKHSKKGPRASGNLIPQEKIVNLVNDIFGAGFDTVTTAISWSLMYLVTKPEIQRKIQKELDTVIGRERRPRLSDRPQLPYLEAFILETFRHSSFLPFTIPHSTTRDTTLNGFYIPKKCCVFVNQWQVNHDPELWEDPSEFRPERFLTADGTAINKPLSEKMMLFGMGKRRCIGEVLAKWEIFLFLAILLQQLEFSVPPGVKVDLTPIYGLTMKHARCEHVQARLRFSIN
In words: CYP450 inhibition in human liver microsomes, 1A2. It is filed as in vitro ADME. Conditions: 10 µM.

The structures appear in SMILES notation. A value given as a limit tells only on which side of the number the result lay.

T1 sequence (Q13547 whole entry): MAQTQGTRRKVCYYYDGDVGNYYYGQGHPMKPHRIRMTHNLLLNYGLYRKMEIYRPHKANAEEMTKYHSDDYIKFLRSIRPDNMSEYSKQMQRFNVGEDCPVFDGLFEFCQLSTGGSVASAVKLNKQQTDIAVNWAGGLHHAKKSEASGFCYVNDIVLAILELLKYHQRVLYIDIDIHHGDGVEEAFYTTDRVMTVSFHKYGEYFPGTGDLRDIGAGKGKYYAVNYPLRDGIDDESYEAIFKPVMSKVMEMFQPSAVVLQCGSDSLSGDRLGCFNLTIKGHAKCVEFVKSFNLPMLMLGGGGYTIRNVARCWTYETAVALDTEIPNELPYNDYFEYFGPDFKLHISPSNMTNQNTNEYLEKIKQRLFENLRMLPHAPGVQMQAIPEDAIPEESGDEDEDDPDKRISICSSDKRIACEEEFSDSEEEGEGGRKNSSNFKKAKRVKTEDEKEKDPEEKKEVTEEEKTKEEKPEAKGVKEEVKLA
T5 sequence (P10635 whole entry): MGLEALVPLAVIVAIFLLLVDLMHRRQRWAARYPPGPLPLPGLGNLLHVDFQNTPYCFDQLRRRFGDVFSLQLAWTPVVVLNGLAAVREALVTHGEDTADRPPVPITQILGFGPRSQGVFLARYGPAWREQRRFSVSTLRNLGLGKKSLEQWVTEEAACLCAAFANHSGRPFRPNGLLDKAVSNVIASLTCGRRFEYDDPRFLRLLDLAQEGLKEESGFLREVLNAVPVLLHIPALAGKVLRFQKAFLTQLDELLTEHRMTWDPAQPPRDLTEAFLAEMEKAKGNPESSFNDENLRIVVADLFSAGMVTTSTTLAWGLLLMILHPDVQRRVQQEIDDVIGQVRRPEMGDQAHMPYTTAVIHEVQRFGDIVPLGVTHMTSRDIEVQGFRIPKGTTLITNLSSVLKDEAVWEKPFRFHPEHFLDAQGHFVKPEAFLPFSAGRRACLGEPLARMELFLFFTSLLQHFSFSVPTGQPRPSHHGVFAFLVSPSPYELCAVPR
T4 sequence (P11712 whole entry): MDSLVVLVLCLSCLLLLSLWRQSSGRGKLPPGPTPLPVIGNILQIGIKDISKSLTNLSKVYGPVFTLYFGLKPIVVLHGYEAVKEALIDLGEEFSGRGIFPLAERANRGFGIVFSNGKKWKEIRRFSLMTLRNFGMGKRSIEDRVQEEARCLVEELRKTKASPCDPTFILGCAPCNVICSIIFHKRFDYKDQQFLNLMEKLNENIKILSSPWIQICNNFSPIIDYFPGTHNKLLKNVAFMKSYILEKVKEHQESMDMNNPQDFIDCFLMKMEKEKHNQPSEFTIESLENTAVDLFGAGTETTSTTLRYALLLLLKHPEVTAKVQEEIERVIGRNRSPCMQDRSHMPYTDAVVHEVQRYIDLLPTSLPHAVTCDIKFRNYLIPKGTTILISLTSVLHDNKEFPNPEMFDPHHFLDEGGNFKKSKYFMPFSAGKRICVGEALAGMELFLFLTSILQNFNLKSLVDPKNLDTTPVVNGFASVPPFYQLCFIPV
Chain of CYP450 3A4 (P08684 whole entry): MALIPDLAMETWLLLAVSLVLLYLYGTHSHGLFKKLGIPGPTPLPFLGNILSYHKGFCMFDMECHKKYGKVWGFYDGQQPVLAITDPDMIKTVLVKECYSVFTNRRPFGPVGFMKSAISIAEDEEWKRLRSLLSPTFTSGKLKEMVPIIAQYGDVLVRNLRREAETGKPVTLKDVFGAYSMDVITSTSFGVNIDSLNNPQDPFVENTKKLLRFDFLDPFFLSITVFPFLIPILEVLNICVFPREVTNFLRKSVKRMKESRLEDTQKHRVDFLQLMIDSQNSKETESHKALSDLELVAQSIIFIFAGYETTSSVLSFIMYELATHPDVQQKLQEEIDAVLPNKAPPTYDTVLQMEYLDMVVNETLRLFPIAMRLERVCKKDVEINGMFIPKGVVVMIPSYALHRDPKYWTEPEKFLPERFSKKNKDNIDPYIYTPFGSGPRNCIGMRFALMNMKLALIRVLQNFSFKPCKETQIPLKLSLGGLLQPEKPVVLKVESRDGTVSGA

In turn, `O=C(/C=C/c1ccc(NC(=O)Nc2ccccc2)cc1)NO` [Compound 6a, (E)-N-hydroxy-3-(4-(3-phenylureido)phenyl)acrylamide] yielded a melting point of 202 to 204 °C. The same molecule came in with an IC50 against human HDAC1 of 1350 ± 64.2 nM. The IC50 in the data set with Namalwa was 300 nM. For the same molecule, the IC50 with HepG2 cells came out at 22900 nM. This molecule registered an IC50 on HDAC8 of 95.1 ± 4.6 nM. In addition, at human HDAC6, inhibition was half-maximal at 12.4 ± 0.7 nM (IC50) and the “HDAC1/6 SI” value is recorded as 109. The IC50 with P. falciparum 3D7 was determined as 1720 nM. In addition, the IC50 with Jurkat was 160 nM.

For the molecule `O=C(CCc1ccc(NC(=O)Nc2ccccc2)cc1)NO` [Compound 7a, N-hydroxy-3-(4-(3-phenylureido)phenyl)propanamide], the melting point was 304 °C (dec.). Further, the IC50 at human HDAC1 is 4890 ± 210 nM. Further, the IC50 in the data set on Namalwa is 780 nM. The IC50 with HepG2 cells is greater than 50000 nM. This molecule gave an IC50 on HDAC8 of 462 ± 27.6 nM. At human HDAC6, the midpoint of inhibition, the IC50, lay at 152 ± 11.6 nM and the “HDAC1/6 SI” value is 32. Also, the IC50 in the data set on P. falciparum 3D7 is 4570 nM. The IC50 with Jurkat was 1590 nM.

`Cl.O=C(NO)c1ccc(Cn2cc(-c3ccc(CN4CCCC4)cc3)nn2)cc1` [FNDR-20123]: the “IC50 against P. falciparum culture” value with P. falciparum culture is “low nanomolar range”. For the same molecule, in data set [1], the “Half-life t1/2” value was 2 to 9.21 h.

On to `Nc1ccc(S(=O)(=O)Nc2ccnn2-c2ccccc2)cc1` [Sulfaphenazole, reference compound], for which the “CYP450% inhibition @ 10 µM 3A4” value on CYP450 3A4 was “* (Inhibition < 10%)”. The “CYP450% inhibition @ 10 µM 2C9” value on CYP450 2C9 is 94%. Moreover, the “CYP450% inhibition @ 10 µM 2D6” value on CYP450 2D6 is listed as “* (Inhibition < 10%)”. Moreover, at CYP1A2, the “CYP450% inhibition @ 10 µM 1A2” value is reported as “* (Inhibition < 10%)”.
